Assay [1] deals with Rb (771-928), FoxM1 (526-748), histone H1. In words: 32P-ATP kinase assay of protein complexes on substrates (FIG. 1A). Type of assay: biochemical. The settings on record: 0.5 μM complex, 20 μM substrate, 250 μM ATP, 30 minutes. Here is the method:
The phosphorylation activity of Cdk4 in various complexes was tested using different substrates.
The substrates used in the kinase assays were the C-terminal domain of the retinoblastoma protein (Rb (771-928); SEQ ID NO: 62), the transactivation domain of FoxM1 (FoxM1 (526-748); SEQ ID NO: 64), and full-length histone H1 (SEQ ID NO: 65).

Assay [2] is described as follows: Steady-state kinetic assays, initial rate of phosphorylation vs ATP concentration (FIGS. 1B and 1C). The settings on record: summary of kinetic results, FIG. 1C. Type of assay: biochemical.

The text below walks through data of US12264339B2, “Compositions and methods involving engineered P27” (THE REGENTS OF THE UNIVERSITY OF CALIFORNIA, priority 2018, dated 2025).

“Cdk4-CycD dimeric complex: Cdk4-CycD1 dimeric complex lacking p27; covers complexes (i) and (ii)”: the “phosphorylation activity toward substrates” value in assay [1] is “high phosphorylation activity specifically for Rb”.
Take “engineered p27 with Y74E, Y88E, and Y89E-Cdk4-CycD1 trimeric complex: trimeric complex of p27 Y74E/Y88E/Y89E, Cdk4 and CycD1; covers complexes (vii) and (viii)”: the ATP substrate capture result in assay [2] is “enhances ATP substrate capture”. For the same substance, the “phosphorylation activity toward substrates” value in assay [1] is “greater activity toward FoxM1 and histone 1”.
